From patent US12692232B2, “Indole carboxamide compound, preparation therefor and use thereof” (NANJING RUISHUNING MEDICAL TECHNOLOGY CO., LTD., priority 2021, dated 2026)

Test system: lipopolysaccharide (LPS)-induced mouse model of sepsis
Experiment: LPS-induced mouse model of sepsis, cardiopulmonary injury
Type: in vivo
Settings: 4 hours after LPS 40 mg/kg; for LVFS: model 15.2 ± 2.8; for LVEF: model 34.3 ± 2.9; for lung coefficient: LPS model 7.24%±0.21%
Procedure: A lipopolysaccharide (LPS)-induced mouse model of sepsis was used to determine the preventive and therapeutic effect of the compounds of the present invention (as exemplified by compound 1-1 obtained in Example 1) on cardiopulmonary injury caused by sepsis. The method was as follows:
Grouping of animals: 50 male C57BL/6J mice aged 6-8 weeks. The mice were randomly divided into 5 groups of 10 mice each, namely, i) a solvent control group: each animal was administered 0.9% saline; ii) a sepsis model group (LPS group): each animal was injected intraperitoneally with LPS at a dose of 40 mg/kg; iii) a treatment group of medium-dose compound 1-1 of Example (LPS+25 mg/kg of compound 1-1 obtained in Example 1): each animal was administered compound 1-1 by gavage at a dose of 25 mg/kg, followed by intraperitoneal injection of LPS at a dose of 40 mg/kg 30 minutes later; iv) a treatment group of high-dose compound 1-1 of Example 1 (LPS+50 mg/kg of compound 1-1 group obtained in Example 1): each animal was administered compound 1-1 by gavage at a dose of 50 mg/kg, followed by intraperitoneal injection of LPS at a dose of 40 mg/kg 30 minutes later; v) a treatment group of medium-dose indole analogue 3-[(1-methyl-1H-indole-2-carbonyl)amino]propionic acid disclosed in CN2019107285315 (LPS+25 mg/kg of indole analogue 3-[(1-methyl-1H-indole-2-carbonyl)amino]propionic acid disclosed in CN2019107285315): each animal was administered the indole analogue by gavage at a dose of 25 mg/kg, followed by intraperitoneal injection of LPS at a dose of 40 mg/kg 30 minutes later. 4 hours after LPS stimulation, follow-up examinations were performed in each group.
Assessment of cardiac function in mice: 4 animals from each group were used for this assay. Isoflurane was used to maintain proper anesthesia and spontaneous breathing in the mice. The mice were placed in the supine position on a constant temperature pad at 37° C., and the extremities of the mice were connected to four electrodes with conductive paste and fixed on the ultrasonic operating table. The probe was coated with ultrasound coupling agent, and placed in the lower middle part of the left sternum of the mice, and the short-axis M-mode echocardiographic images of the left ventricle adjacent to the sternum were acquired in real time. The dynamic images of 10 consecutive cardiac cycles were acquired using M-mode echocardiography, and the images were stored and analyzed offline. Left ventricular ejection fraction (LVEF) and left ventricular fraction shortening (LVFS) were calculated from left ventricular end diastolic diameter (LVEDD) and left ventricular end systolic diameter (LVESD), respectively, using the formulae: LVEF=(LVEDD^3−LVESD^3)/LVEDD^3×100% and LVFS=(LVEDD−LVESD)/LVEDD×100%.
Determination of lung coefficient: after weighting, the mice were anesthetized with pentobarbital sodium injection, and the whole lung was removed from the thorax, and the tissue around the lung was removed. Surface moisture and blood stains were wiped dry with filter paper, and the wet weight of the lung was weighed. Lung coefficient=lung wet weight […]/mouse body weight (g)×100%.
Histopathological observations: after the mice were anaesthetized with pentobarbital sodium injection, the lungs and ventricles were removed by thoracotomy and fixed in 10% neutral formaldehyde (pH=7.4) for 2 days. Routine paraffin embedding, serial sectioning, H&E staining, neutral balsam sealing and microscopic observation were performed.

Structure (SMILES) | LVFS (medium-dose 25 mg/kg gavage) [%] | LVEF (medium-dose 25 mg/kg gavage) [%] | lung coefficient (medium-dose 25 mg/kg) | LVFS (high-dose 50 mg/kg gavage) [%] | LVEF (high-dose 50 mg/kg gavage) [%] | lung coefficient (high-dose 50 mg/kg)
Cn1c(C(=O)NCCC(=O)O)cc2ccccc21 [3-[(1-methyl-1H-indole-2-carbonyl)amino]propionic acid, reference compound] | 22.9±4.0 | 53.2±3.8 | 5.48%±0.15% |  |  | 
CC(=O)OCCCNC(=O)c1c(C=O)c2ccccc2n1C [compound 1-1, propyl 3-[(3-formyl-1-methyl-1H-indole-2-carbonyl)amino]acetate] | 24.5±2.6 | 58.7±4.3 | 5.16%±0.19% | 30.7±2.2 | 63.8±3.9 | 4.93%±0.12%
